pIC50: −log10 of the molar value.
How the values were obtained:
Format in all cases: biochemical
cyclin H-Cdk7 = target: T1, cyclin H-Cdk7 (Homo sapiens, UniProt P50613); assay: Cdk7 inhibitory action: cyclin H-Cdk7 kinase activity; settings: cyclin H-Cdk7, 50 μM ATP
T1 construct: made in house; host or cells: insect cell Sf9 (baculovirus)
Source text: (§1) The cDNA of Cdk7, and the cDNA of a fusion protein of cyclin H, an activating factor of Cdk7, and glutathione S-transferase, were integrated into a baculovirus expression vector to prepare a recombinant baculovirus. This was co-transfected into insect cell Sf9 to express an active complex of the cyclin H/glutathione S-transferase fusion protein-Cdk7 at a high level. The cells were recovered and solubilized, then the active complex was adsorbed onto Glutathione Sepharose, and a cyclin H-Cdk7 active complex was recovered using Precision Protease.
For the measurement of the activity of cyclin H-Cdk7, a synthetic peptide ([…] was used as the substrate.
(§2) The reaction was performed by partially modifying the method of Kitagawa et al. [Oncogene, Vol. 7, 1067-1074 (1992)]. The volume of the reaction solution was 21.1 μL, and to the R buffer, purified cyclin H-Cdk7, 25 μM of the substrate peptide, 50 μM of non-labeled adenosine triphosphate (ATP), and 1 μCi of [γ-33P]-labeled ATP (2000 to 4000 Ci/mmole) were added to react at 30° C. for 45 minutes. Then, 10 μL of 350 mM phosphate buffer was added to the reaction system to terminate the reaction. The substrate peptide was adsorbed onto P81 paper filter on a 96-well plate, and then washed several times with 75 mM phosphate buffer. The radioactivity of the substrate peptide was measured with a liquid scintillation counter.
(§3) Addition of the compound according to the invention to the reaction system was carried out by first preparing a dilution series of solutions of the compound in dimethylsulfoxide (DMSO), and adding 1.1 μL of the dilutions. A control was provided by adding 1.1 μL of DMSO to the reaction system.
A representative compound of the compounds according to the invention was selected, and the IC50 value of this compound for the cyclin H-Cdk7 activity was determined.

cyclin T1-Cdk9 = target: T2, cyclin T1-Cdk9 (Homo sapiens, UniProt P50750); assay: Cdk9 inhibitory action: cyclin T1-Cdk9 kinase activity; settings: cyclin T1-Cdk9, 50 μM ATP
T2 construct: made in house; host or cells: insect cell Sf9 (baculovirus)
T2 sequence (P50750 whole entry): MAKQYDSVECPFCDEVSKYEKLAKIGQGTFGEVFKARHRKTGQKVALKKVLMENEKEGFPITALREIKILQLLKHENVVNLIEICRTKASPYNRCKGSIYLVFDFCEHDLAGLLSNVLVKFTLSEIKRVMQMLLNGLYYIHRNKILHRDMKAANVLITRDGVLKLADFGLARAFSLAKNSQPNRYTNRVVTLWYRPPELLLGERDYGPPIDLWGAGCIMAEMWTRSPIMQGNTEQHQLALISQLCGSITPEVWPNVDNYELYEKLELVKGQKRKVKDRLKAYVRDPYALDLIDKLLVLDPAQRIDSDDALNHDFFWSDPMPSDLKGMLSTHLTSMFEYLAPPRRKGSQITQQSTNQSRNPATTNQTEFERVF
T2 sequence (O60563 whole entry partner): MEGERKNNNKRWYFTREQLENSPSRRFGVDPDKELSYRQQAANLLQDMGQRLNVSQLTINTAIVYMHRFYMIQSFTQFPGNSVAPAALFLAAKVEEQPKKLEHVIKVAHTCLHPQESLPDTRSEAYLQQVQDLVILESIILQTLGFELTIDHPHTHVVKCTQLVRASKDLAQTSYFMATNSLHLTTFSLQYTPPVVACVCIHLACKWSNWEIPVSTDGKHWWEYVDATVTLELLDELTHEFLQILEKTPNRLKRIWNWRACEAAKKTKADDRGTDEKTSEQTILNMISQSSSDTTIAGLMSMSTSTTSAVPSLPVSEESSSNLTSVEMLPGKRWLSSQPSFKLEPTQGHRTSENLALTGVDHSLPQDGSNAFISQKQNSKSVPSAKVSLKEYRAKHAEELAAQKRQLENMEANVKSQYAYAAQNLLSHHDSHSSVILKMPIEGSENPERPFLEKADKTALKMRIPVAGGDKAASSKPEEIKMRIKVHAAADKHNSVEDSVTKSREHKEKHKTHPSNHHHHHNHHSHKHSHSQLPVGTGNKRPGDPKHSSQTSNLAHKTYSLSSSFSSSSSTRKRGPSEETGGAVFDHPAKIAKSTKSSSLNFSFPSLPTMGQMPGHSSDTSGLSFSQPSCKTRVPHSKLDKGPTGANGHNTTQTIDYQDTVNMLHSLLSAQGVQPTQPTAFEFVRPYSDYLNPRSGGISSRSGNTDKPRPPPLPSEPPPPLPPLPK
Source text: The cDNA of Cdk9, and the cDNA of a fusion protein of cyclin T1, an activating factor of Cdk9, and glutathione S-transferase, were integrated into a baculovirus expression vector to prepare a recombinant baculovirus. This was co-transfected into insect cell Sf9 to express an active complex of the cyclin T1/glutathione S-transferase fusion protein-Cdk9 at a high level. The cells were recovered and solubilized, and the active complex was adsorbed onto Glutathione Sepharose, and then was purified by elution with 10 mM reductive glutathione. The solution containing the eluted active complex was dialyzed against B buffer (composition: 20 mM Tris-hydrochloric acid buffer (pH 7.4)/200 mM sodium chloride/0.1% Tween-20/10 mM 2-mercaptoethanol/1 mM dithiothreitol/10% glycerol) to remove the reductive glutathione.
For the measurement of the activity of cyclin T1-Cdk9, a synthetic peptide ([…] was used as the substrate.
as §2, with “cyclin T1-Cdk9,” for “cyclin H-Cdk7,”, “and 0.5” for “and 1”, “for 20” for “for 45”
Addition of the compound according to the invention to the reaction system was carried out by first preparing a dilution series of solutions of the compound in dimethylsulfoxide (DMSO), and adding […] of the dilutions. A control was provided by adding 1.1 μL of DMSO to the reaction system.
A representative compound of the compounds according to the invention was selected, and the IC50 value (nM) of this compound for the cyclin T1-Cdk9 activity was determined.

cyclin B-Cdk1 = target: T3, cyclin B-Cdk1 (Homo sapiens, UniProt P06493); assay: Cdk1 (Cdc2) inhibitory action: cyclin B-Cdk1 kinase activity; settings: cyclin B-Cdk1, 50 μM ATP
T3 construct: made in house; host or cells: insect cell Sf9 (baculovirus)
T3 sequence (P06493 whole entry): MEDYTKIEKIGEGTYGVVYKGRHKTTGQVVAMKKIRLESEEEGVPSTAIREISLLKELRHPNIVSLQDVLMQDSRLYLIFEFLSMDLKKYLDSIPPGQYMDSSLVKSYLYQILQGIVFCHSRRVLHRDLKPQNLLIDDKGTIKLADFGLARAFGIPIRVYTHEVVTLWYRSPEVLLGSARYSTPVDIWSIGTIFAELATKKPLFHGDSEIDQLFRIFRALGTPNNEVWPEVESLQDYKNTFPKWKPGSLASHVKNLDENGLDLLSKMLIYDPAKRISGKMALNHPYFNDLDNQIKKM
T3 sequence (P14635 whole entry partner): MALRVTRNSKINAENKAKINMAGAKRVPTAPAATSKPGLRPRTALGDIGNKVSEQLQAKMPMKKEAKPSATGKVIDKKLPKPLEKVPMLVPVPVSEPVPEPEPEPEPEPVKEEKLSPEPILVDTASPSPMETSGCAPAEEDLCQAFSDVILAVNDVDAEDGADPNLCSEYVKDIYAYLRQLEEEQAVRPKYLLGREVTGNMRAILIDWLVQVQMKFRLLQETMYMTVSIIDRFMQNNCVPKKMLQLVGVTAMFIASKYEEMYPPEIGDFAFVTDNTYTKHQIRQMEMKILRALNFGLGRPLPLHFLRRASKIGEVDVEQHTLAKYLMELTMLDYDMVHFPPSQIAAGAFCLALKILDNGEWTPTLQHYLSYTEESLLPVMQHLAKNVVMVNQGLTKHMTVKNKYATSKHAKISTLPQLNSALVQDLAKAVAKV
Source text: as §1, with “Cdk1,” for “Cdk7,”, “B,” for “H,”, “B/glutathione” for “H/glutathione”, “protein-Cdk1” for “protein-Cdk7”, “B-Cdk1” for “H-Cdk7”, “Protease and was purified by HPLC column chromatography.” for “Protease.”
For the measurement of the activity of cyclin B-Cdk1, a synthetic peptide (Ala-Lys-Ala-Lys-Lys-Thr-Pro-Lys-Lys-Ala-Lys-Lys) was used as the substrate.
as §2, with “B-Cdk1, 100” for “H-Cdk7, 25”, “30” for “45”
as §3
A representative compound of the compounds according to the invention was selected, and the IC50 value of this compound for the cyclin B-Cdk1 activity was determined.

T1 sequence (P50613 whole entry): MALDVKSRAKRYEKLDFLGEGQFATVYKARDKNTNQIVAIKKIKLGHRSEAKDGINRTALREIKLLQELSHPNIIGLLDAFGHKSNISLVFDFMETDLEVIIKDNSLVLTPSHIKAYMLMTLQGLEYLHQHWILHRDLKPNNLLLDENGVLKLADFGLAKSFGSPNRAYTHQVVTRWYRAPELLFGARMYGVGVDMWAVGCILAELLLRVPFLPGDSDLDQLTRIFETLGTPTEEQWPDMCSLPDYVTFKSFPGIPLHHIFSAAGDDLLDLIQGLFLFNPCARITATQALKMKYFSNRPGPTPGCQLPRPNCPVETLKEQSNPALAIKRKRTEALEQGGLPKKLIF
T1 sequence (P51946 whole entry partner): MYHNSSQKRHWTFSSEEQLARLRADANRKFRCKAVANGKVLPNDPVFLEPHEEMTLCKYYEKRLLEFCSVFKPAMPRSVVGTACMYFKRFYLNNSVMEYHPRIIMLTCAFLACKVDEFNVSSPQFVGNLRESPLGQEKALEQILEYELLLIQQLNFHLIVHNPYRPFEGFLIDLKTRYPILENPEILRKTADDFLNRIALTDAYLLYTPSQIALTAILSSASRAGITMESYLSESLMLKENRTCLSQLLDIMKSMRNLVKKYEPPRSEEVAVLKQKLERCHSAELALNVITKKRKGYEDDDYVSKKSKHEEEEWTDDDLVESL

Structure (SMILES) | pIC50 (cyclin H-Cdk7) | pIC50 (cyclin T1-Cdk9) | pIC50 (cyclin B-Cdk1)
Cc1cc(-c2cnc(Nc3cnc(CN4CCN(C)CC4)cn3)s2)nc(OC2CCCCC2)n1 [Example 1, 5-[2-(cyclohexyloxy)-6-methyl-4-pyrimidinyl]-2-[5-(4-methyl-1-piperazinyl)methyl-2-pyrazinyl]amino-1,3-thiazole] | 6.28 | 5.60 | 6.22
Cc1cc(-c2cnc(Nc3cnc(CN4CCC(N(C)C)C4)cn3)s2)nc(OC2CCCCC2)n1 (centres unmarked) [Example 13, 5-[2-(cyclohexyloxy)-6-methyl-4-pyrimidinyl]-2-[5-(3-dimethylamino-1-pyrrolidinyl)methyl-2-pyrazinyl]amino-1,3-thiazole] | 6.43 | 6.37 | 6.21
Cc1cc(-c2cnc(Nc3cnc(CN4CCN(C)CC4)cn3)s2)nc(NC2CCCCC2)n1 [Example 55, 5-[2-(cyclohexylamino)-6-methyl-4-pyrimidinyl]-2-[5-(4-methyl-1-piperazinyl)methyl-2-pyrazinyl]amino-1,3-thiazole] | 6.34 | 5.85 | 6.12
Cc1cc(-c2cnc(Nc3cnc(CN4CCCC4)cn3)s2)nc(SC2CCCCC2)n1 [Example 93, 5-[2-(cyclohexylthio)-6-methyl-4-pyrimidinyl]-2-[5-(1-pyrrolidinyl)methyl-2-pyrazinyl]amino-1,3-thiazole] | 6.85 | 6.64 | 6.06
Cc1cc(-c2cnc(Nc3cnc(CN4CCC(N(C)C)C4)cn3)s2)nc(SC2CCCCC2)n1 (centres unmarked) [Example 94, 5-[2-(cyclohexylthio)-6-methyl-4-pyrimidinyl]-2-[5-(3-dimethylamino-1-pyrrolidinyl)methyl-2-pyrazinyl]amino-1,3-thiazole] | 7.04 | 6.57 | 6.04
Cc1cc(-c2cnc(Nc3cnc(CNC(C)C)cn3)s2)nc(SC2CCCCC2)n1 [Example 96, 5-[2-(cyclohexylthio)-6-methyl-4-pyrimidinyl]-2-[5-(isopropylamino)methyl-2-pyrazinyl]amino-1,3-thiazole] | 6.80 | 6.85 | 6.25
Cc1cc(-c2cnc(Nc3cnc(CNCCO)cn3)s2)nc(SC2CCCCC2)n1 [Example 99, 5-[2-(cyclohexylthio)-6-methyl-4-pyrimidinyl]-2-[5-(2-hydroxyethylamino)methyl-2-pyrazinyl]amino-1,3-thiazole] | 6.92 | 7.01 | –
Cc1cc(-c2cnc(Nc3cnc(CN4CCN(C)CC4)cn3)s2)nc(Sc2ccccc2Cl)n1 [Example 109, 5-[2-(2-chlorophenylthio)-6-methyl-4-pyrimidinyl]-2-[5-(4-methyl-1-piperazinyl)methyl-2-pyrazinyl]amino-1,3-thiazole] | 6.55 | 6.19 | 6.37
CC(=O)N1CCN(Cc2ccc(Nc3ncc(-c4cc(C)nc(OC5CCCCC5)n4)s3)nc2)CC1 [Example 125, 5-[2-(cyclohexyloxy)-6-methyl-4-pyrimidinyl]-2-[5-(4-acetyl-1-piperazinyl)methyl-2-pyridyl]amino-1,3-thiazole] | 6.43 | 6.19 | 5.92
Cc1cc(-c2cnc(Nc3ccc(CN4CCC[C@H]4CO)cn3)s2)nc(NC2CCCCC2)n1 [Example 137, (2S)-5-[2-(cyclohexylamino)-6-methyl-4-pyrimidinyl]-2-[5-(2-hydroxymethyl-1-pyrrolidinyl)methyl-2-pyridyl]amino-1,3-thiazole] | 5.92 | 5.96 | 5.92

— US7709475B2, “Selective inhibitors against Cdk4 and Cdk6 having aminothiazole skeleton” (Banyu Pharmaceutical Co., Ltd., priority 2004, dated 2010)
